Test results reported in patent publication US20140370510A1, “MODULATION OF PEPTIDOME USING HISTONE DEACETYLASE INHIBITOR” (University of South Florida (A Florida Non-Profit …, priority 2012, published 2014).

Assays:
Assay type in all cases: cell-based
[1] = test system: CLIP occupancy of MHC class II (HLA-DR) on CIITA-4 melanoma cells, WM9 melanoma cells and Raji B cells; assay: Flow cytometry of surface CLIP and HLA-DR (CLIP/HLA-DR ratio) after HDACi treatment; conditions: 5 μM Entinostat or 3 μM Vorinostat, 40 hours, vs DMSO
Experimental: To determine whether HDACi's could affect anti-tumor immunity, major histocompatibility (MHC) class II positive melanoma cells were treated with HDACi's and assayed for potential alterations in the binding of MHC class II to antigenic peptides. More specifically, melanoma cells were treated with Entinostat or Vorinostat, two HDACi's currently used to treat patients. The CIITA-4 melanoma cells were previously transformed with an expression vector for the MHC class II transactivator, CIITA, which leads to constitutive MHC class II expression. The WM9 melanoma cells have naturally occurring CIITA and MHC class II expression. Raji B cells also constitutively express both CIITA and MHC class II.
Cells were cultured in RPMI (antibiotic supplements and 10% fetal calf serum) and treated with either DMSO, 5 μM Entinostat, 3 μM Vorinostat, or 400 units/ml IFN-γ. […] Surface expression of HLA-DR, the most significant MHC class II protein, was detected using flow cytometry. Surface expression of the class II associated invariant chain peptide (CLIP) was also detected using flow cytometry. […]
Samples were analyzed on a BD LSR II flow cytometer (San Jose, Calif.) equipped with 405 nm, 488 nm and 633 nm lasers using BD FacsDiva 6.1.3 software. FITC, PE and DAPI dyes were detected using 530/30, 575/26 and 450/50 band pass filters, respectively. […]

[2] = test system: cathepsin L1 mRNA in Raji B-cells; assay: RT-PCR assay of cathepsin L1 mRNA in Raji B-cells; conditions: normalized to GAPDH mRNA and DMSO, 40 hours
Experimental: (§1) An RT-PCR assay of cathepsin L1 mRNA was performed in treated Raji B-cells. More specifically, RNA was extracted from the DMSO, Entinostat, Vorinostat, and IFN-γ treated Raji B-cells described in Example 1 using an RNeasy Mini Kit< Qiagen cat #74106. RNA quality was verified using a bioanalyzer (Agilent). Reverse transcription of total RNA (1 μg) to cDNA was done with a High Capacity RNA-to-cDNA Master Mix (Applied Biosystems part of Life Technologies, Foster City, Calif., catalog number 4390777). In a 0.2 ml PCR tube, 5×Complete Master Mix (4.0 μl) and nuclease-free H20 were mixed with 1 μg RNA for a total reaction volume of 20 μL. The sample was incubated at 25° C. for 5 minutes, 42° C. for 30 minutes and then 85° C. for 5 minutes in a DNA Engine Peltier thermal cycler (Bio-Rad). qPCR target related: cathepsin L1, CTSL1, RefSeq-NM13 001912.4, amplicon length-85 bp, Assay ID Details-Hs00377632_ml; Cathepsin S, CTSS, RefSeq-NM_004079.4, amplicon length-70 bp, Assay ID Details Hs00175407_ml; GAPDH-glyceraldehyde-3-phosphate dehydrogenase, Gapdh, RefSeq-NM_00246.3, amplicon length-58 bp, Assay ID Details-Hs03929097_gl.
(§2) All primers and probes were from Applied Biosystems Assay-on-Demand. […] The GAPDH was used as an endogenous control for relative qPCR quantification. […]

[3] = test system: cathepsin L1 mRNA in WM9 melanoma cells; assay: RT-PCR assay of cathepsin L1 mRNA in WM9 melanoma cells; conditions: normalized to GAPDH mRNA and DMSO
cathepsin S mRNA = assay: RT-PCR assay of cathepsin S mRNA; conditions: normalized to GAPDH mRNA and DMSO
Experimental: as §1, §2

Cathepsin L1 = Cathepsin L1 antibody (ctsl1) staining intensity, bright field microscopy; conditions: 5 μM Entinostat vs DMSO; p-value <0.0004
Experimental: In FIG. 6, samples were viewed with a Leica DMLB upright bright field microscope and a 20×/0.5NA HC PL fluortar objective (Leica Microsystems GmbH, Wetzlar, Germany). Transmitted bright light was used without contrasting methods. Gain, offset, and other acquisition settings were identical for all samples within each group. The number of nuclei was determined with auto-threshold segmentation on the cell morphology. The nuclei segmentation was further refined by size and shape of the objects created from the initial segmentation. ImagePro Plus v6.1 (Media Cybernetics, Bethesda, Md.) software was then used to determine the ctsl1 staining intensity (ctsl1 is cathepsin L1 antibody). Positive cells were established as >20DR over background for each 8bit image (0-255DR). The number of pixels over this threshold per cell was used to determine the differences between the Entinostat and DMSO groups. Each image and analysis was blinded and completed in triplicate (p-value <0.0004).

Row | Compound | amount of CLIP associated with MHC Class II on the APC surface (CLIP occupancy) [1] | cathepsin L1 mRNA induction [2] | cathepsin L1 mRNA induction [3] | cathepsin S mRNA induction (cathepsin S mRNA) | induction of Cathepsin L1 (ctsl1 staining intensity, FIG. 5) (Cathepsin L1)
1 | Nc1ccccc1NC(=O)c1ccc(CNC(=O)OCc2cccnc2)cc1 [Entinostat] | reduction in the amount of CLIP | induces cathepsin L1 mRNA | induces cathepsin L1 mRNA | no effect | significant induction
2 | O=C(CCCCCCC(=O)Nc1ccccc1)NO [Vorinostat, Suberoylanilide hydroxamic acid] | reduction in the amount of CLIP | no effect | no effect | no effect | –
